From ChEMBL document CHEMBL1201862, “PubChem BioAssay data set” (2004)
The source made the active and inactive calls.

Tests used:
Genome polyprotein = Genome polyprotein (dengue virus type 2, UniProt P29990); experiment: Dengue-2 NS5 methyltransferase inhibitors, primary screen, biochemical, confirmation dose response (AID 588689); format: functional
BJ [1] = experiment: cytotoxicity toward BJ-TERT-LT-ST fibroblasts, dose response, cell-based, RAS-independent, luminescence (AID 1935); format: functional; settings: Homo sapiens;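 also: BJ fibroblasts immortalized with TERT plus LT and ST oncogenes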
BJ [2] = experiment: cells; format: functional, cell-based; settings: Homo sapiens
[3] = cytotoxicity toward DRD oncogenic fibroblasts, dose response, cell-based, non-viral oncogenic, luminescence (AID 1934); format: functional; settings: Homo sapiens
BJ [4] = experiment: cytotoxicity toward BJ-TERT fibroblasts, dose response, cell-based, RAS-independent, luminescence (AID 1933); format: functional; settings: Homo sapiens
Aminopeptidase N = target: T1, Aminopeptidase N (Plasmodium falciparum FcB1/Columbia, UniProt O96935); experiment: P. falciparum M1AAP inhibitors, biochemical, fluorogenic H-Leu-NHMec substrate, 1536-well (AID 1445); parameters: species or system Plasmodium falciparum 3D7, 3D7
T1 sequence (O96935 whole entry): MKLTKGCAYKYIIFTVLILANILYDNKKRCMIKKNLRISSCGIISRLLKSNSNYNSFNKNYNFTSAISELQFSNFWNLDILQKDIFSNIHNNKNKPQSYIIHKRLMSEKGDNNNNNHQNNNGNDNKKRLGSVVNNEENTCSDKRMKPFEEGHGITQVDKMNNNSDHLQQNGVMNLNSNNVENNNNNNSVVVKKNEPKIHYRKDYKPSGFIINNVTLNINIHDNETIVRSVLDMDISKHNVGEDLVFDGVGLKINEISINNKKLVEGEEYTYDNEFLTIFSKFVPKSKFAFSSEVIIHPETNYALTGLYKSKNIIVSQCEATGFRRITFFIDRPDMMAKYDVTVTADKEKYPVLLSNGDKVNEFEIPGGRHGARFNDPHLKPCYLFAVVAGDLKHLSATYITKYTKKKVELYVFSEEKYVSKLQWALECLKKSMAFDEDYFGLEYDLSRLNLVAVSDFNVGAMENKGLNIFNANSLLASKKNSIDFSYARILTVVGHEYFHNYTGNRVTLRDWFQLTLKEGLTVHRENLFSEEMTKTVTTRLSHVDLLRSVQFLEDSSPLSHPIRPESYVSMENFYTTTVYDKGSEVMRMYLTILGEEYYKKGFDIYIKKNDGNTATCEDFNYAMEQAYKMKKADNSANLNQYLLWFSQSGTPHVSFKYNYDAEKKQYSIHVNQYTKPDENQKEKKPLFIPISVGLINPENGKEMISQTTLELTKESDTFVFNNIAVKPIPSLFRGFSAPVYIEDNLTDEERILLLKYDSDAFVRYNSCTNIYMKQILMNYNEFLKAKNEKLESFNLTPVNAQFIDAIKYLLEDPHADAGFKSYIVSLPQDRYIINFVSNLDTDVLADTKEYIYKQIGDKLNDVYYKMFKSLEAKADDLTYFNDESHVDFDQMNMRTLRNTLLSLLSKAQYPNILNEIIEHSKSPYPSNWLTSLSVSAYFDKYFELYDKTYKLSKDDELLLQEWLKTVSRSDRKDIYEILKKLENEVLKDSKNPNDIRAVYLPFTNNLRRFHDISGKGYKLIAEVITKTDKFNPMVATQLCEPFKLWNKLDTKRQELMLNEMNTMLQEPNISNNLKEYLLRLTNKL

[5] = Luminescence Cell-Based Dose Confirmation HTS to Identify Inhibitors of Platelet Dense Granule Release. [Related pubchem assays: 1663 (Primary HTS), 1678 (Summary of Project)]; format: functional
[6] = target: Luciferin 4-monooxygenase (Photinus pyralis, UniProt P08659); experiment: firefly luciferase enzyme inhibitors, dose response, biochemical, luminescence (AID 1891)
Sequence of Luciferin 4-monooxygenase (P08659 whole entry): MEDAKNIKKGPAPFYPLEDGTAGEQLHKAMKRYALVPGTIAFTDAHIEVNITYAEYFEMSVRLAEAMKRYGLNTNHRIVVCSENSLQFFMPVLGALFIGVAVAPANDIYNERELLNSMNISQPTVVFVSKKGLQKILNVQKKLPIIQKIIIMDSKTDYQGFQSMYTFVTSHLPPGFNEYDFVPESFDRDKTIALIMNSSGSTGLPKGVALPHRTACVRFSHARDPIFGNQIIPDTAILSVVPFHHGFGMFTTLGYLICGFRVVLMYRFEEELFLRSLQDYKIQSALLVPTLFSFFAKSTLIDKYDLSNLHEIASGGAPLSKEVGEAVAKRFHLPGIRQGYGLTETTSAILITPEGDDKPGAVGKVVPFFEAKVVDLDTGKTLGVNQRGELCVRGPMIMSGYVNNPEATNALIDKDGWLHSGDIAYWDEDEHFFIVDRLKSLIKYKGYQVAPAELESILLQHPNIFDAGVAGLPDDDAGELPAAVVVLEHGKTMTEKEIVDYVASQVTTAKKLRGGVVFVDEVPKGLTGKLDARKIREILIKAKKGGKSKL

[7] = inhibitors of intracellular T. cruzi replication, confirmation, NIH3T3 host cells, beta-gal luminescence (AID 2044); format: functional, cell-based;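 also: intracellular parasites grown in NIH/3T3 mouse fibroblasts as host cells; luminescent beta-galactosidase reporter signal from transgenic T. cruzi replicating inside host cells; inhibitors lower the luminescence signal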
[8] = cytotoxicity toward NIH3T3 fibroblasts, dose response, counter-screen, cell-based, ATP luminescence, mouse fibroblasts (AID 2010); format: functional;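 also: cells exposed to compound for about 90 hours before reading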
[9] = growth suppression of beta-catenin-knockout colon cells, dose response, cell-based, HCT116, human colon tumor (AID 1045); format: functional;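 also: HCT116 colon tumor cells with beta catenin knocked out; cells exposed to compound for 60 hours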
[10] = growth suppression of PTEN-null colon cells, dose response, cell-based, HCT116 PTEN knockout (AID 1047); format: functional;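 also: HCT116 colon tumor cells with PTEN knocked out; cells exposed to compound for 60 hours before readout; potency for loss of cell viability measured by luminescence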
Cytochrome P450 2C9 = Cytochrome P450 2C9 (Homo sapiens, UniProt P11712)
Sequence of Cytochrome P450 2C9 (P11712 whole entry): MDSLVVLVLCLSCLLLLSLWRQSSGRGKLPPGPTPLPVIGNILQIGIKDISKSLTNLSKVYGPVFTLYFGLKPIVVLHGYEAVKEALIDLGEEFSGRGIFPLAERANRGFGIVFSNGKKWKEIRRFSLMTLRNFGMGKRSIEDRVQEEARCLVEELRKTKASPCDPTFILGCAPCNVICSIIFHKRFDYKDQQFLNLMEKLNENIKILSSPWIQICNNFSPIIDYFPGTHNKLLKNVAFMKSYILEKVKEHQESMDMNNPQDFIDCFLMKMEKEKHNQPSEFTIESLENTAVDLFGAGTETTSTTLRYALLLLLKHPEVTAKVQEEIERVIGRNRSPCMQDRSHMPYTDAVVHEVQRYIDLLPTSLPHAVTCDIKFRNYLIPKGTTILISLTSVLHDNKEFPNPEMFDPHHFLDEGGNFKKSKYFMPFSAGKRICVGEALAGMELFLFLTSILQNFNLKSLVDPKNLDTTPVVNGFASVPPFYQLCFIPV

Cytochrome P450 3A4 = Cytochrome P450 3A4 (Homo sapiens, UniProt P08684);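 also: CYP3A4 tested as one member of a cytochrome P450 panel screen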
Sequence of Cytochrome P450 3A4 (P08684 whole entry): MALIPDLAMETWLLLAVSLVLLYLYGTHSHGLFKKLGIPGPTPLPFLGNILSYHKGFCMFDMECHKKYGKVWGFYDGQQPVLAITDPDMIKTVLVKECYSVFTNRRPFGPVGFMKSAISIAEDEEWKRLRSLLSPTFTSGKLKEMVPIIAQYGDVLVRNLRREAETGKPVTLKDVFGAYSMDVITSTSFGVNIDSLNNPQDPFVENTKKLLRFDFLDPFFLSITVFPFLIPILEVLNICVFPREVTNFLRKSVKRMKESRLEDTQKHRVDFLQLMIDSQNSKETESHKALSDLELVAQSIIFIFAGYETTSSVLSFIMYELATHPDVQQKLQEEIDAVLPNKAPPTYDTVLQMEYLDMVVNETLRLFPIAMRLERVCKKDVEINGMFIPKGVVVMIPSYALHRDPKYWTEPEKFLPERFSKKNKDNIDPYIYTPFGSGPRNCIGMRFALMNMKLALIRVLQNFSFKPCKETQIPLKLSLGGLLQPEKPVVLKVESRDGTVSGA

cells = format: functional
Cytochrome P450 1A2 = target: T2, Cytochrome P450 1A2 (Homo sapiens, UniProt P05177);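 also: PubChem cytochrome P450 panel assay, CYP1A2 panel member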
T2 sequence (P05177 whole entry): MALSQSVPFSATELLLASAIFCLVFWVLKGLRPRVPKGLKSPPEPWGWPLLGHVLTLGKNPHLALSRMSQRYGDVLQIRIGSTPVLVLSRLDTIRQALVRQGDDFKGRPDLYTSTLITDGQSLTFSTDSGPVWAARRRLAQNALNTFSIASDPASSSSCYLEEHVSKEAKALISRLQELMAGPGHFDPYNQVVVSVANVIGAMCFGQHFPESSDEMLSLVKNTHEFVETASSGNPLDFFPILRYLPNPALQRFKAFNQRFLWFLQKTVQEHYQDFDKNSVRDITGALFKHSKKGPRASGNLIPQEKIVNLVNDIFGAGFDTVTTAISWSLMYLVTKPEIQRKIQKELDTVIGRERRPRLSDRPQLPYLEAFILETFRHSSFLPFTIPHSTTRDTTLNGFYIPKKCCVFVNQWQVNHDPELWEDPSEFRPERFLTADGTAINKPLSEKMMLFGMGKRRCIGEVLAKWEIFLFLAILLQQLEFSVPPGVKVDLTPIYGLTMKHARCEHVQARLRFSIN

[11] = inhibitors of SNCA 5'UTR-driven reporter translation, confirmation, H4 neuroglioma cells, luminescence (AID 1988); format: functional, cell-based
[12] = inhibitors of firefly luciferase expression or activity, dose response, H4 neuroglioma cells, luminescence (AID 1990); format: functional, cell-based
[13] = Luminescence Cell-Based Dose Response HTS to Identify Inhibitors of 5'UTR Stem-Loop Driven Prion Protein mRNA Translation in H4 Neuroglioblastoma Cells. [Related pubchem assays: 1827 (Project Summary), 1813 (Primary HTS)]; format: functional

Sequence of Genome polyprotein (P29990 2492-3391 limits assumed): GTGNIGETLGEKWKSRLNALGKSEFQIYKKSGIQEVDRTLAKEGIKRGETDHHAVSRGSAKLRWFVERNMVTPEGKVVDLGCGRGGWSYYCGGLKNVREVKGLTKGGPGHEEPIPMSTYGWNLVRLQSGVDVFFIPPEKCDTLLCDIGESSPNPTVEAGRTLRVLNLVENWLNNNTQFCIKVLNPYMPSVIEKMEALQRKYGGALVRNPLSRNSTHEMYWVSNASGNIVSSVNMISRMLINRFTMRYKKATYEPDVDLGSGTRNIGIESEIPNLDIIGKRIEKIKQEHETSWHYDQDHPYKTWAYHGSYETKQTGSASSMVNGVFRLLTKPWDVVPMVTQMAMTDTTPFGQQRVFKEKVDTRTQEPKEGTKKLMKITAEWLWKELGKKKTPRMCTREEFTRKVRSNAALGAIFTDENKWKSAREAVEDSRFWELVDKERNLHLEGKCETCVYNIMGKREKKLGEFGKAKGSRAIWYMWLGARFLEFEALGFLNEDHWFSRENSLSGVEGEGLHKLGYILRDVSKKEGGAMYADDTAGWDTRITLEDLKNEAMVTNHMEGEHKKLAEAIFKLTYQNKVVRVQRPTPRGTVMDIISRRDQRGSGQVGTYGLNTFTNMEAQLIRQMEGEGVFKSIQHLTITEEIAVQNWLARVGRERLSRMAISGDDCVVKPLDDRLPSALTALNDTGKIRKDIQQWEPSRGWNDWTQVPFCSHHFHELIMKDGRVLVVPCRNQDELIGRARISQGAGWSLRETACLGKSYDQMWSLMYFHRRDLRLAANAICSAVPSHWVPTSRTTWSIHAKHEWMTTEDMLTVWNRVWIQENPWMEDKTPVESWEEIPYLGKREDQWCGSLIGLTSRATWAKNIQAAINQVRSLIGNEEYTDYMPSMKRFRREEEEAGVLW

Structure (SMILES): CCOc1cc(/C=C2\C(=O)ON=C2c2ccccc2)ccc1OC
- IC50 (Genome polyprotein): 27.1 µM (active)

Structure (SMILES): Cc1cc(C(=O)N/N=C/c2ccc3c(c2)OCO3)c2ccccc2n1
- EC50 (BJ [1]): 20.9 µM (active)
- EC50 (BJ [2]): 33.6 µM (active)
- EC50 [3]: 22.7 µM (active)
- EC50 (BJ [4]): 12.7 µM (active)

Structure (SMILES): CN(C)CCCNc1oc(/C=C/c2ccccc2)nc1C#N
- IC50 (Aminopeptidase N): 45.3 µM (active)

Structure (SMILES): O=C(NCC1CCCO1)c1cccc(NC(=O)c2ccc(Br)cc2)c1 (configuration not stated)
- EC50 [5]: > 112 µM (not active)
- EC50 [6]: > 112 µM (not active)

Structure (SMILES): COc1cc(/C=C/C(=O)O)cc(S(=O)(=O)NCc2ccc3c(c2)OCO3)c1OC
- IC50 (Aminopeptidase N): 81.9 µM (active)

Structure (SMILES): OC(CNc1ccccc1)COc1ccc(OCC(O)CNc2ccccc2)cc1 (configuration not stated)
- EC50 [7]: 3.54 µM (active)
- EC50 [8]: > 60 µM (not active)
- EC50 [9]: 15 µM (active)
- EC50 [10]: 15.6 µM (active)

Structure (SMILES): COc1ccc(-c2[nH]c(-c3ccc4c(c3)OCO4)nc2-c2ccccc2)cc1
- EC50 [9]: 20.7 µM (active)
- EC50 [10]: 15.9 µM (active)

Structure (SMILES): COC(=O)c1ccccc1NC(=O)c1ccc(Cn2cc(Cl)cn2)o1
- AC50 (Cytochrome P450 2C9): inconclusive
- AC50 (Cytochrome P450 3A4): 10 µM (inconclusive)

Structure (SMILES): CCOC(=O)CNC(=O)N1c2ccccc2Sc2ccccc21
- IC50 (cells): 1.95 µM (active)

Structure (SMILES): CCOC(=O)C1=C(O)/C(=C/c2cc(OC)c(OC)c(OC)c2)N=C1C
- EC50 [5]: > 112 µM (not active)
- EC50 [6]: > 112 µM (not active)
- AC50 (Cytochrome P450 1A2): 14.1 µM (inconclusive)
- AC50 (Cytochrome P450 3A4): 17.8 µM (inconclusive)

Structure (SMILES): Cc1ccccc1Cn1cc(NC(=O)c2noc(C(C)C)c2[N+](=O)[O-])cn1
- EC50 [11]: > 120 µM (not active)
- EC50 [12]: > 120 µM (not active)
- IC50 (cells): 7.8 µM (active)
- EC50 [13]: > 120 µM (not active)

Structure (SMILES): O=C(NC1CCCCC1)N(C1=NCCCCC1)c1ccc(Br)cc1
- EC50 [5]: > 112 µM (not active)
- EC50 [6]: > 112 µM (not active)

Structure (SMILES): CC(C)(C)S(=O)(=O)c1cnc2c(-c3ccc(Cl)cc3)cnn2c1N
- EC50 [9]: 11.8 µM (active)
- EC50 [10]: 10.3 µM (active)

Structure (SMILES): CSc1ncc(Cl)c(C(=O)C(C#N)c2nc3c(C)cc(C)cc3c(=O)[nH]2)n1 (configuration not stated)
- IC50 (Aminopeptidase N): 84.5 µM (active)

Structure (SMILES): CCCn1c(-c2ccc[nH]c2=O)nc2cc(C)c(C)cc21
- IC50 (Aminopeptidase N): 23.8 µM (active)

Structure (SMILES): Cc1cccc(C2C3=C(O)c4ccccc4C3=Nc3nn(-c4ccccc4)c(O)c32)c1 (configuration not stated)
- IC50 (Aminopeptidase N): 38.3 µM (active)
- IC50 (Genome polyprotein): 59.4 µM (active)

Structure (SMILES): COc1cccc(/C=C(/C#N)c2ccc(F)cc2)c1OCc1cccc(C(=O)O)c1
- IC50 (Aminopeptidase N): 43.6 µM (active)

Structure (SMILES): COc1ccccc1CC(=O)O/N=C(\N)Cc1cccc2ccccc12
- AC50 (Cytochrome P450 2C9): inconclusive

Structure (SMILES): CSC1=C(C#N)C(=O)NC(c2ccccc2O)S1 (configuration not stated)
- IC50 (Genome polyprotein): 45.2 µM (active)
